# Results: patent US9956157B2, “Composition containing fucosterol for skin whitening or moisturizing” (INDUSTRY-ACADEMIC COOPERATION FOUNDATION, YONSEI UNIVERSITY, priority 2014, dated 2018)
# Columns and labels:
# Assay type in all cases: cell-based
# [1] = system: involucrin; assay: Involucrin protein expression (western blot) in HaCaT human keratinocytes; details: HaCaT cells, fucosterol 5, 10, 20 μM, 24 hrs, FIG. 10
# Protocol: (§1) HaCaT human keratinocytes were incubated in a Dulbecco's Modified Eagle's Media (DMEM) medium including 10% fetal bovine serum and then put in a 6-well plate with 2×10^5 cell/ml (the final volume of 3 ml). After being incubated for 24 hrs, the medium was removed and fucosterol which was dissolved in the DMEM medium was treated at 5, 10, and 20 μM concentrations, respectively. After 24 hrs, the HaCaT human keratinocytes were lysed with a NP40 buffer solution including proteinase inhibitor cocktail. The protein amount extracted from the HaCaT human keratinocytes was quantified by using a Bradford method. The sample was boiled for 5 min and then the same amount of protein ([…]) was isolated by electrophoresis with 10% SDS-PAGE. The isolated proteins after electrophoresis were transferred to a nitrocellular membrane and western blot was performed. A primary antibody was reacted and the nitrocellular membrane was washed three times by using Tris-buffer saline tween20 (TBST) for 10 min. In this case, the kind and the dilution of the primary antibody used in the present invention is 1:1000. In a secondary antibody reaction, a secondary antibody was put in the membrane performing the primary antibody reaction and reacted for 2 hrs at room temperature. In this case, a dilution of the secondary antibody was 1:5000. […]
# [2] = system: caspase 14; assay: Caspase 14 protein expression (western blot) in HaCaT human keratinocytes; details: HaCaT cells, fucosterol 5, 10, 20 μM, 24 hrs, FIG. 12
# Protocol: as §1
# [3] = system: TRP-2 (tyrosinase-related protein 2); assay: TRP-2 protein expression (western blot) in B16F10 melanoma cells; details: 200 nM α-MSH, fucosterol 5 and 20 μM, 24 hrs, FIG. 6
# Protocol: B16F10 melanoma cells were incubated in a DMEM medium including 10% fetal bovine serum and then added in a 6-well plate with 2.5×10^5 cell/mL (the final volume of 3 mL). After being incubated for 24 hrs, the medium was removed and fucosterol which was dissolved in the DMEM medium including 200 nM α-MSH was treated at 5 and 20 μM of concentrations, respectively. The cells after 24 hrs were lysed with a NP40 buffer solution including proteinase inhibitor cocktail and the protein amount extracted from the cells was quantified by using a Bradford reagent. The quantified protein was boiled for 5 min and isolated by electrophoresis with 10% SDS-PAGE to transfer the isolated proteins to a nitrocellular membrane. A primary antibody of […] and […] was diluted in 2.5% bovine serum albumin at a ratio of 1:1000 and reacted with the protein transferred to the nitrocellular membrane for 20 hrs at room temperature. The primary antibody was reacted and then the nitrocellular membrane was washed three times by using the TBST for 10 min. […] As the measured result, the protein expression of […] and […] was verified and it was shown that the loading amount of the protein was constant by α-tubulin.
# [4] = system: B16F10 melanoma cells; assay: Microscopic observation of melanin generation in α-MSH-stimulated B16F10 melanoma cells; details: 200 nM α-MSH, fucosterol 5 and 20 μM, 72 hrs, FIG. 3
# Protocol: B16F10 melanoma cells were incubated in a DMEM medium including 10% fetal bovine serum and then added in a 6-well plate with 2.5×10^5 cell/mL (the final volume of 3 mL). After being incubated for 24 hrs, the medium was removed and fucosterol which was dissolved in the DMEM medium including 200 nM α-MSH was treated at 5 and 20 μM of concentrations, respectively. After 72 hrs, the incubated medium was removed from the 6-well plate and the B16F10 melanoma cells were photographed by using a microscope (Olympus IX71 Model), and the result was illustrated in FIG. 3.
# [5] = system: HaCaT human keratinocytes; assay: Cornified envelope formation in HaCaT human keratinocytes (absorbance 340 nm); details: HaCaT cells, fucosterol 5, 10, 20 μM, 96 hrs, p<0.05, FIG. 8
# Protocol: HaCaT human keratinocytes were incubated in a Dulbecco's Modified Eagle's Media (DMEM) medium including 10% fetal bovine serum and then put in a 6-well plate with 2×10^5 cell/ml (the final volume of 3 ml). After being incubated for 24 hrs, the medium was removed and fucosterol which was dissolved in the DMEM medium was treated at 5, 10, and 20 μM concentrations, respectively. After incubation for 96 hrs, the incubated medium was removed from the 6-well plate to collect a cell pellet, and the cell pellet was transferred to a 1.5 mL tube and centrifuged for 10 min at 10,000 rpm to remove a supernatant. The obtained pellet was added with a Tris buffer solution including 2% sodium dodecyl sulfate (SDS) and 20 mM dithiothreitol (DTT) and boiled, and the absorbance was measured at 340 nm to evaluate the effect on cornified envelope formation. According to Equation 1 below, the formation degree of the cornified envelope compared with the control group was calculated and the result was illustrated in FIG. 8. Cornified envelope formation amount (%) compared with control group=absorbance of each test material/absorbance of control group×100 […]
compound,measurement,setting,value
C/C=C(\CC[C@@H](C)[C@H]1CC[C@H]2[C@@H]3CC=C4C[C@@H](O)CC[C@]4(C)[C@H]3CC[C@]12C)C(C)C [fucosterol],protein expression of involucrin,[1],increased
same,protein expression of caspase 14,[2],increased
same,protein expression of TRP-2,[3],reduced
same,"melanin generation, microscopic observation",[4],largely inhibited
same,cornified envelope formation,[5],excellent cornified envelope formation effect
